Measured values taken from ChEMBL document CHEMBL1135579, “Serine-threonine protein phosphatase inhibitors: development of potential therapeutic strategies” (J Med Chem, 2002).

How the values were obtained:
[1] = Exogenous inhibition concentration of Serine/threonine protein phosphatase 2B (PP2B)
[2] = Exogenous inhibition of Serine/threonine protein phosphatase 1 (PP1); set-up: species or system Homo sapiens
[3] = Selectivity for interaction at Serine/threonine protein phosphatase 2B (PP2B); conditions: read-out: Ki app
[4] = target: T1, Serine/threonine-protein phosphatase PP1-gamma catalytic subunit (Homo sapiens, UniProt P36873); test: Inhibition of Serine/threonine protein phosphatase 1 (PP1) mutants by natural toxins in wild type
Target sequence in this assay (P36873 2-323 limits assumed, stated change not applied): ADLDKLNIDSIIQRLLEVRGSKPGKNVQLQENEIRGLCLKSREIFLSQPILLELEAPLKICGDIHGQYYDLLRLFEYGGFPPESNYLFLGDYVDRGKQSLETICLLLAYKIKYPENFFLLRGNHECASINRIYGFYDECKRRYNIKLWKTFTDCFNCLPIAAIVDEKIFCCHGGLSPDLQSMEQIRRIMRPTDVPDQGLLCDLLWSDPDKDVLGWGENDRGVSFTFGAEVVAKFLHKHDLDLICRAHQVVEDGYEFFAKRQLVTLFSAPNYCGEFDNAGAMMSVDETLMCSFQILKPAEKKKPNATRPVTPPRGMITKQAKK

[5] = Exogenous inhibition concentration of Serine/threonine protein phosphatase 2C (PP2C); NI means no inhibition.
[6] = Exogenous inhibition concentration of Serine/threonine protein phosphatase 4 (PP4)
[7] = target: Serine/threonine-protein phosphatase PP1-gamma catalytic subunit (Homo sapiens, UniProt P36873, H248N); test: Inhibition of Serine/threonine protein phosphatase 1 (PP1) mutant type H248N by compound was evaluated
[8] = target: Serine/threonine-protein phosphatase PP1-gamma catalytic subunit (Homo sapiens, UniProt P36873, C127S); test: Inhibition of Serine/threonine protein phosphatase 1 (PP1) mutant type C127S by compound was evaluated
[9] = target: Serine/threonine-protein phosphatase PP1-gamma catalytic subunit (Homo sapiens, UniProt P36873, D208A); test: Inhibition of Serine/threonine protein phosphatase 1 (PP1) mutant type D208A by compound was evaluated
[10] = target: Serine/threonine-protein phosphatase PP1-gamma catalytic subunit (Homo sapiens, UniProt P36873, D220V); test: Inhibition of Serine/threonine protein phosphatase 1 (PP1) mutant type D220V by compound was evaluated
[11] = target: Serine/threonine-protein phosphatase PP1-gamma catalytic subunit (Homo sapiens, UniProt P36873, E275R); test: Inhibition of Serine/threonine protein phosphatase 1 (PP1) mutant type E275R by compound was evaluated
[12] = target: Serine/threonine-protein phosphatase PP1-gamma catalytic subunit (Homo sapiens, UniProt P36873, N124D); test: Inhibition of Serine/threonine protein phosphatase 1 (PP1) mutant type N124D by compound was evaluated
[13] = target: Serine/threonine-protein phosphatase PP1-gamma catalytic subunit (Homo sapiens, UniProt P36873, R221S); test: Inhibition of Serine/threonine protein phosphatase 1 (PP1) mutant type R221S by compound was evaluated
[14] = target: Serine/threonine-protein phosphatase PP1-gamma catalytic subunit (Homo sapiens, UniProt P36873, R96A); test: Inhibition of Serine/threonine protein phosphatase 1 (PP1) mutant type R96A by compound was evaluated
[15] = target: Serine/threonine-protein phosphatase PP1-gamma catalytic subunit (Homo sapiens, UniProt P36873, Y272F); test: Inhibition of Serine/threonine protein phosphatase 1 (PP1) mutant type Y272F by compound was evaluated
[16] = Inhibition of growth after 72 hr continuous exposure to test compounds in Ovarian A2780 tumor cell lines; assay type: functional; conditions: A2780, 72 h
[17] = Inhibition of growth after 72 hr continuous exposure to test compounds in Osteosarcoma 143B tumor cell lines; assay type: functional; conditions: Homo sapiens
[18] = Inhibition of growth after 72 hr continuous exposure to test compounds in Ovarian ADDP tumor cell lines; assay type: functional
[19] = target: T1, Serine/threonine-protein phosphatase PP1-gamma catalytic subunit; test: Inhibition of Serine/threonine protein phosphatase 1 by anhydride modified Cantharidin analogues
Target sequence in this assay (P36873 whole entry): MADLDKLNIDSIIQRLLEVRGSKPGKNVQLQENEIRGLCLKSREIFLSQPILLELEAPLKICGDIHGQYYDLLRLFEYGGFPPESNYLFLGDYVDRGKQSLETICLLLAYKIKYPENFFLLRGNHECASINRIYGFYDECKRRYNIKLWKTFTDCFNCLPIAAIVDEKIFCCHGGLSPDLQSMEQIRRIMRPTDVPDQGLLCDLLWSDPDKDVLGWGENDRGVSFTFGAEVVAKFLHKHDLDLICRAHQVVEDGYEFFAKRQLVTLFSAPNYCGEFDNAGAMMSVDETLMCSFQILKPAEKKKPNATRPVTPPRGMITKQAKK

[20] = target: T2, Serine-threonine protein phosphatase 2A regulatory subunit (Gallus gallus, UniProt Q8AWE3); test: Inhibition of Serine/threonine protein phosphatase 2A by anhydride modified Cantharidin analogues
T2 sequence (Q8AWE3 whole entry): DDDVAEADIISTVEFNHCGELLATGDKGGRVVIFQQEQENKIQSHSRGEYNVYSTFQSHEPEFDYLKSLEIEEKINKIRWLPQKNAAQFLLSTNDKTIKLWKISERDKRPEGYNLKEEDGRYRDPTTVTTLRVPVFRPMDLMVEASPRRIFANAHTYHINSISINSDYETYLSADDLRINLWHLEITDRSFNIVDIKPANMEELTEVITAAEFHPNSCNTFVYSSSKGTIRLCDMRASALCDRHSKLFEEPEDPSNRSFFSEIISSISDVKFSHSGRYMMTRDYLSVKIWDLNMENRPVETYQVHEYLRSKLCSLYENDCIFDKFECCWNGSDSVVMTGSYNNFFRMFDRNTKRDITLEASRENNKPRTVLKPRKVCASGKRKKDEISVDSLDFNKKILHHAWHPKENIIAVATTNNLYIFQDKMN

[21] = target: T3, Serine-threonine protein phosphatase 2A regulatory subunit (Gallus gallus) (UniProt Q8AWE3); test: Tested for selective inhibition of Serine/threonine protein phosphatase 2A (PP2A) with respect to inhibition of Serine/threonine protein phosphatase 1 (PP1)
T3 sequence (whole entry): T2 sequence (Q8AWE3 whole entry)

[22] = Inhibition of growth after 72 hr continuous exposure to test compounds in Colon HCT 116 tumor cell lines; assay type: functional; conditions: Homo sapiens, HCT-116, 72 h
[23] = Inhibition of growth after 72 hr continuous exposure to test compounds in colon HT-29 tumor cell lines; assay type: functional; conditions: Homo sapiens, HT-29, 72 h

Chain of Serine/threonine-protein phosphatase PP1-gamma catalytic subunit (Homo sapiens, UniProt P36873, R96A) (P36873 2-323 R96A limits assumed): as the sequence (P36873 2-323 limits assumed, stated change not applied) above, with R95A counted along it
Chain of Serine/threonine-protein phosphatase PP1-gamma catalytic subunit (Homo sapiens, UniProt P36873, H248N) (P36873 2-323 H248N limits assumed): as the sequence (P36873 2-323 limits assumed, stated change not applied) above, with H247N counted along it
Chain of Serine/threonine-protein phosphatase PP1-gamma catalytic subunit (Homo sapiens, UniProt P36873, C127S) (P36873 2-323 C127S limits assumed): as the sequence (P36873 2-323 limits assumed, stated change not applied) above, with C126S counted along it
Chain of Serine/threonine-protein phosphatase PP1-gamma catalytic subunit (Homo sapiens, UniProt P36873, R221S) (P36873 2-323 R221S limits assumed): as the sequence (P36873 2-323 limits assumed, stated change not applied) above, with R220S counted along it
Chain of Serine/threonine-protein phosphatase PP1-gamma catalytic subunit (Homo sapiens, UniProt P36873, D208A) (P36873 2-323 D208A limits assumed): as the sequence (P36873 2-323 limits assumed, stated change not applied) above, with D207A counted along it
Chain of Serine/threonine-protein phosphatase PP1-gamma catalytic subunit (Homo sapiens, UniProt P36873, D220V) (P36873 2-323 D220V limits assumed): as the sequence (P36873 2-323 limits assumed, stated change not applied) above, with D219V counted along it
Chain of Serine/threonine-protein phosphatase PP1-gamma catalytic subunit (Homo sapiens, UniProt P36873, N124D) (P36873 2-323 N124D limits assumed): as the sequence (P36873 2-323 limits assumed, stated change not applied) above, with N123D counted along it
Chain of Serine/threonine-protein phosphatase PP1-gamma catalytic subunit (Homo sapiens, UniProt P36873, E275R) (P36873 2-323 E275R limits assumed): as the sequence (P36873 2-323 limits assumed, stated change not applied) above, with E274R counted along it
Chain of Serine/threonine-protein phosphatase PP1-gamma catalytic subunit (Homo sapiens, UniProt P36873, Y272F) (P36873 2-323 Y272F limits assumed): as the sequence (P36873 2-323 limits assumed, stated change not applied) above, with Y271F counted along it

In the case of O=C(O)C1C2C[C@H](COC(=O)C3C[C@H]3c3ccccc3)[C@@H](O2)C1C(=O)O (stereo not given in full), the IC50 [1] is reported as 11.5 µM, the IC50 [2] is reported as 4 µM and the Ki [3] is reported as 0.5 µM.

In the case of C=C1[C@@H](O)[C@@H]2O[C@]3(CC[C@H](/C=C/[C@@H](C)[C@@H]4CC(C)=C[C@@]5(O[C@H](C[C@@](C)(O)C(=O)O)CC[C@H]5O)O4)O3)CC[C@H]2O[C@@H]1[C@@H](O)C[C@H](C)[C@H]1O[C@@]2(CCCCO2)CC[C@H]1C [OKADAIC ACID], the IC50 [4] is reported as 0.045 µM, the IC50 [1] is reported as greater than 10000 µM and the IC50 [5] is reported as “no inhibition”. The IC50 [6] was 0.0002 µM, the IC50 [2] was 0.003 µM and the IC50 [7] was greater than 5 µM. It also gave an IC50 [8] of 0.078 µM, an IC50 [9] greater than 5 µM and an IC50 [10] of 0.028 µM. The IC50 [11] was 0.048 µM, the IC50 [12] was greater than 5 µM and the IC50 [13] was greater than 5 µM. For the same compound, the IC50 [14] was 0.26 µM and the IC50 [15] was 1.15 µM.

Work on CCOC(=O)C1C(C(=O)O)C2CC[C@H]1O2 (stereo not given in full) yielded a GI50 [16] of 185 µM, a GI50 [17] of 437 µM and a GI50 [18] of 330 µM. The IC50 [19] was 2.96 µM, the IC50 [20] was 0.45 µM and the PP2A Selectivity [21] was 6.6. The GI50 [22] was 266 µM and the GI50 [23] was 243 µM.
